Laboratory results reported in US20080220416A1, “Compositions for Inhibiting Cell Growth and Inducing Apoptosis in Cancer Cells and Methods of Use Thereof” (THE BOARD OF TRUSTEES OF THE UNIVERSITY OF ILLINOI, priority 2004, published 2008).
Where two headings read alike, the source gives them in different places.

Experiments:
NOXA = assay: Western blot of pro-survival and pro-apoptotic proteins in melanoma cells; format: cell-based, human; settings: several melanoma cell lines, similar time points; data not shown
Method: To assess the effect of z-Leu-Leu-Nle-CHO on pro-apoptotic proteins, RJ002L pulmonary metastases melanoma cells were grown in RPMI supplemented with 10% FBS. Highly proliferating cells (i.e., cells that had reached approximately 30% confluency) were exposed to z-Leu-Leu-Nle-CHO by replenishing the culture media with media containing z-Leu-Leu-Nle-CHO (10 μM) (experimental group) or media without z-Leu-Leu-Nle-CHO (control group) and the cells were incubated for a specified period of time prior to harvesting the cells for further analysis.
Western blot analyses following z-Leu-Leu-Nle-CHO and control treatment of RJ002L melanoma cells were performed to determine the effect of z-Leu-Leu-Nle-CHO on pro-survival and pro-apoptotic proteins. Whole cell extracts were prepared and analyzed as described by Denning, M. F. et al., 1998, J Biol Chem 273: 29995-30002, 1998. The enriched mitochondria pellet and mitochondria-free cytosol of melanoma cells were prepared with the APO ALERT cell fraction kit (Clontech Laboratories, Inc. Palo Alto, Calif.) according to the manufacturer's instructions. For Western blot analysis, equal amounts of protein extracted from each sample (20-30 μg) were loaded into pre-cast 7% NuPAGE Tris-acetate gels or 4-12% NuPAGE Bis-tris gels (Invitrogen). Proteins were separated by SDS-PAGE and transferred to polyvinylidene difluoride membranes (Bio-Rad, Hercules, Calif.) using Invitrogen's buffering system. The indicated primary antibodies were incubated for indicated period of time, washed, and visualized by incubation with horseradish peroxidase-conjugated secondary antibodies and chemiluminescent reagents (Roche Diagnostics Corporation, Indianapolis, Ind.). Antibodies used were as follows: From Santa Cruz Biotechnology: Bcl-2 (SC-7382), BCl-xL (SC-634), Mcl-1 (SC-819), survivin (SC-10811), Bax (SC-493), Bak (SC-832), Bim (SC-11425), PUMA (SC-19187), p53 (SC-126), and GADD45 (SC-796); From Cell Signaling: Bid (#2002), and cleaved caspase 9 (9501); NOXA (OP180—Oncogene Research Products), Apaf-1 (559683-BD Bioscience), Smac/Diablo (IMG-248-Imgenex), cytochrome C (part of kit—Apo Alert™ cell fraction kit—Clontech Laboratories, Inc.—Palo Alto, Calif.), PARP (Pharmingen, San Diego, Calif.) and β-actin (Sigma Chemical Co., St. Louis, Mo.). Secondary antibodies anti-goat, anti-mouse, anti-rabbit and anti-rat (IgG-HRP) were purchased from Vector Laboratories (Burlingame, Calif.), Santa Cruz Biotechnology and Amersham Biosciences.
To determine if p53 status influences induction of NOXA, NOXA induction in z-Leu-Leu-Nle-CHO-treated melanoma cell lines (10 μM) containing p53 mutations (i.e. C8161, SK-MeI-28, MUM2B) were examined using Western blot analysis as described above and compared to that of Western blot results from z-Leu-Leu-Nle-CHO-treated melanoma cell lines (10 μM) having wild-type p53 (RJ002L, SK-MeI-100). […] In contrast, C8161, which carries a R196Stop mutation in only one allele, has p53 expression similar to that observed in wild-type cell lines. […] NOXA induction occurred earlier in SK-MeI-100 cells than in the other tested cell lines (FIG. 2C). Apaf-1 levels were not increased in response to z-Leu-Leu-Nle-CHO (data not shown).

RJ002L melanoma cells = assay: Dosing study versus chemotherapeutic agents, killing of RJ002L melanoma cells; format: cell-based, human
Method: (§1) An initial dosing study comparing z-Leu-Leu-Nle-CHO against three different chemotherapeutic agents (i.e., adriamycin, etoposide, and cisplatin) was performed to evaluate the relative effectiveness of z-Leu-Leu-Nle-CHO in killing melanoma cells. In agreement with a previous report by Soengas, M. S. et al., 2001, Nature 409.207-211, SK-MeI-28 cells, carrying a mutated p53, were relatively resistant to killing by adriamycin, as well as to killing by other chemotherapeutic agents. For SK-MeI-28 melanoma cells, the maximal apoptotic response for adriamycin, etoposide, cisplatin, and z-Leu-Leu-Nle-CHO was 12.0%, 2.6%, 4.0%, and 29.4%, respectively. For RJ002L melanoma cells, the maximal apoptotic response for adriamycin, etoposide, cisplatin, and z-Leu-Leu-Nle-CHO was 23.9%, 12.7%, 3.4%, and 45.7%, respectively.

SK-MeI-28 melanoma cells = assay: Dosing study versus chemotherapeutic agents, killing of SK-MeI-28 melanoma cells; format: cell-based, human; settings: SK-MeI-28, mutated p53
Method: as §1

[1] = test system: CaSki human cervical cancer cells; assay: Cell growth inhibition assay in CaSki cervical cancer cells (crystal violet); format: cell-based; settings: 48 hrs, read-out: IC50 of cisplatin
Method: The cell growth inhibition assay was performed in a 96-well plate format. Inhibition was assessed by monitoring the protein content in each well using the crystal violet staining method as described by Skehan et al., 1990, J Natl Cancer Inst 82:1107-1112 and Prochaska et al., 1988, Anal Biochem 169:328-336. Briefly, cells were plated at a density of 2×10^4 cells/ml in 200 μl of DMEM supplemented with 10% FBS. The cells were transfected with siRNAs ([…] siRNA oligos/well) using Oligofectamine Transfection Reagents (InVitrogen) according to manufacturer's instructions. Twenty-four hours post-transfection, the media was decanted, 190 μl of fresh media was added to each well, and 10 μl of cisplatin (4 mM) dissolved in 10% DMSO was added to the wells as a series 2-fold dilutions (final concentration of cisplatin in the wells ranged from 0.5-200 μM). The cells were incubated with cisplatin for 48 hrs, the media was decanted, and the cells were submerged with 200 μl of 0.2% crystal violet in 2% ethanol for 10 min. The plates were rinsed for 2 min with tap water. The bound dye was solublized by incubation at 37° C. for 1 h with 200 μl of 0.5% sodium dedecyl sulfate in 50% ethanol. The plates were then scanned with an ELISA reader at 562 nm. The percentage cell growth inhibition mediated by cisplatin was calculated as: % inhibition=[1-(OD of cisplatin-treated cells/OD DMSO-treated control cells)]×100/100.
CaSki human cervical cancer cells treated for 48 hrs with z-Leu-Leu-Nle-CHO alone were tested for cell growth inhibition. The cell growth inhibition assay was performed in a 96-well plate format. Inhibition was assessed by monitoring the protein content in each well using the crystal violet staining method Skehan, P. et al., 1990, J Natl Cancer Inst 82:1107-1112. Briefly, cells were plated at a density of 2×10^4 cells/ml in 200 μl of DMEM supplemented with 10% FBS. After pre-incubation period of 24 h, the media was decanted, 190 μl of fresh media was added to each well, and 10 μl (150 μM) of z-Leu-Leu-Nle-CHO dissolved in 10% DMSO was added to the wells as a series 2-fold dilutions (final concentration of cisplatin in the wells ranged from 0.05-7.5 μM). The cells were incubated with z-Leu-Leu-Nle-CHO for 48 hrs, the media was decanted, and the cells were submerged with 200 μl of 0.2% crystal violet in 2% ethanol for 10 min. The plates were rinsed for 2 min with tap water. The bound dye was solublized by incubation at 37° C. for 1 h with 200 μl of 0.5% sodium dedecyl sulfate in 50% ethanol. The plates were then scanned with an ELISA reader at 562 nm. The percentage cell growth inhibition mediated by test agents was calculated as: % inhibition=[1-(OD of z-Leu-Leu-Nle-CHO-treated cells/OD DMSO-treated control cells)]×100/100.
To determine whether z-Leu-Leu-Nle-CHO treatment potentiates the effect of cisplatin on human […] cancer cells, the CaSki cells were treated for 48 h with 0.1-0.8 μM z-Leu-Leu-Nle-CHO and various concentrations of cisplatin (2-fold dilutions of a cisplatin solution to produce final concentrations of 1.6-200 μM cisplatin). Following the z-Leu-Leu-Nle-CHO and cisplatin treatment, the cells were tested for growth inhibition as described above.
Isobologram analysis was performed by measuring the IC50 values of cisplatin in the presence of various concentrations of z-Leu-Leu-Nle-CHO. These IC50 values were plotted with SigmaPlot, and a straight line was traced between the IC50 values of cells treated with either cisplatin or z-Leu-Leu-Nle-CHO alone.

| Compound | NOXA induction by DNA damaging agents (NOXA) | maximal apoptotic response (RJ002L melanoma cells) | maximal apoptotic response (SK-MeI-28 melanoma cells) | IC50 ([1]; in combination with Notch-1 siRNA) | IC50 ([1]; without Notch-1 siRNA) |
| --- | --- | --- | --- | --- | --- |
| COc1cccc2c1C(=O)c1c(O)c3c(c(O)c1C2=O)C[C@@](O)(C(=O)CO)C[C@@H]3O[C@H]1C[C@H](N)[C@H](O)[C@H](C)O1 [adriamycin] | did not induce NOXA | 23.9% | 12.0% |  |  |
| N.N.[Cl][Pt][Cl] [cisplatin] | did not induce NOXA | 3.4% | 4.0% | 0.46 µM | 27.3 µM |
| COc1cc([C@@H]2c3cc4c(cc3[C@@H](O[C@@H]3O[C@@H]5CO[C@@H](C)O[C@H]5[C@H](O)[C@H]3O)[C@H]3COC(=O)[C@H]23)OCO4)cc(OC)c1O [etoposide] | did not induce NOXA | 12.7% | 2.6% |  |  |
